Reference: patent US6469042B1, “Fluoro oxindole derivatives as modulators if KCNQ potassium channels” (Bristol-Myers Squibb Company, priority 2001, dated 2002)
Marks after values point to notes of the source that are not given here.

Columns and labels:
[1] = target: T1, cloned mouse KCNQ2 (mKCNQ2) (Mus musculus, UniProt Q9Z351); experiment: KCNQ oocyte two-electrode voltage clamp, KCNQ2-mediated outward current; format: cell-based; conditions: expressed as percent increase over KCNQ current in controls, Xenopus oocytes
T1 construct: expressed in transfected cells; host or cells: Xenopus oocytes injected with mKCNQ2 cRNA
Method: The ability of compounds described in the present invention to open KCNQ channels and increase whole-cell outward (K^+) KCNQ-mediated currents was assessed under voltage-clamp conditions by determining their ability to increase cloned mouse KCNQ2 (mKCNQ2)-mediated, heteromultimeric KCNQ2/3 (mμKCNQ2/3)-mediated, and human KCNQ5 (hKCNQ5)-mediated outward currents heterologously expressed in Xenopus oocytes. Oocytes were prepared and injected using standard techniques; each oocyte was injected with approximately 50 nl of mKCNQ2, or hKCNQ5 cRNA. In the case of mKCNQ2/3 heteromultimeric channel expression, equal amounts (25-50 nL) of ech cRNA were co-injected. […] Following injection, oocytes were maintained at 17° in ND96 medium consisting of (in mM): NaCl, 90; KCl, 1.0; CaCl2, 1:0; MgCl2, 1:0; HEPES, 5.0; pH 7.5. Horse serum (5%) and penicillin/streptomyin (5%) were added to the incubation medium. Recording commenced 2-6 days following mRNA injection. Prior to the start of an experiment oocytes were placed in a recording chamber and incubated in Modified Barth's Solution (MBS) consisting of (in mM): NaCl, 88; NaHCO3, 2.4; KCl, 1.0; HEPES, 10; MgSO4, 0.82; Ca(NO3)2, 0.33; CaCl2, 0.41; pH 7.5.
Oocytes were impaled with electrodes (1-2 MΩ) and standard 2-electrode voltage clamp techniques were employed to record whole-cell membrane currents. Recordings were accomplished using standard two-electrode voltage clamp techniques [Stuhmer, W., et al., Methods in Enzymolgy, Vol. 207: 319-339 (1992)]. Voltage-clamp protocols typically consisted of a series of voltage steps 1-5 sec duration, in +10 mV steps from a holding potential of −90 mV to a maximal potential of +40 mV; records were digitized at 5 kHz and stored on a computer using pClamp data acquisition and analysis software (Axon Instruments). Compounds were evaluated at a single concentration (10 or 20 μM); the effect of the selected compounds of Formula I on KCNQ2 current was expressed as the percent of control current and is listed in Table I.

[2] = test system: SSS-stimulated trigeminal field response in trigeminal nucleus caudalis; experiment: In vivo electrophysiology: superior sagital sinus (SSS)-stimulated trigeminal field response (migraine model); design: species or system rat
Excerpt: Male Long-Evans rats (Harlan, 250-400 g) were used in the experiments described in this example. Prior to testing, rats were allowed access to food and water ad libitum and were maintained on a 12:12-h light/dark cycle. Rats were group housed in an Association for Assessment and Accreditation of Laboratory Animal Care (AAALAC) accredited facility and cared for in strict compliance with all applicable regulations.
Rats were anesthetized with 1.2 g/kg i.p. urethane (#U-2500, Sigma Chemical Company, St. Louis, Mo.) and given supplemental urethane as needed. In the case of intravenous (i.v.) drug administration, the jugular veins of the rats were cannulated using sylastic tubing pre-filled with vehicle.
Rats were placed in a stereotaxic device (#1730, David Kopf Instruments, Tujunga, Calif.) and an incision was made to expose the entire skull that continued caudally to the level of the C1/C2 vertebral juncture. Using a microdrill (#770, Dremel, Racine, Wis.) and #4 carbide burr (Henry Schein, Melville, N.Y.), a square section of skull was removed extending from the bregma position, rostrally, to the lambda position, caudally. […]
Stimulated field responses were recorded in the trigeminal nucleus caudalis using Teflon coated stainless-steel microelectrodes (5 megaohms impedance, Frederick Haer, Brunswick, Me.) and amplified and filtered (0.1 Hz-10 kHz) using a differential amplifier (#IsoDAM8, World Precision Instruments, Sarasota, Fla.). […]
Three baseline measures (i.e., 100% of control), each consisting of 100 evoked trigeminal field potentials, were sampled prior to drug injection. […] Following injection of test substances, data were sampled for 1 hour, averaged into 5 minute bins (90 evoked potentials) and expressed as a percent change from average baseline values for the purposes of statistical analysis. Data were analyzed using repeated measures analyses of variance comparing vehicle and drug effects. […]

T1 sequence (Q9Z351 whole entry): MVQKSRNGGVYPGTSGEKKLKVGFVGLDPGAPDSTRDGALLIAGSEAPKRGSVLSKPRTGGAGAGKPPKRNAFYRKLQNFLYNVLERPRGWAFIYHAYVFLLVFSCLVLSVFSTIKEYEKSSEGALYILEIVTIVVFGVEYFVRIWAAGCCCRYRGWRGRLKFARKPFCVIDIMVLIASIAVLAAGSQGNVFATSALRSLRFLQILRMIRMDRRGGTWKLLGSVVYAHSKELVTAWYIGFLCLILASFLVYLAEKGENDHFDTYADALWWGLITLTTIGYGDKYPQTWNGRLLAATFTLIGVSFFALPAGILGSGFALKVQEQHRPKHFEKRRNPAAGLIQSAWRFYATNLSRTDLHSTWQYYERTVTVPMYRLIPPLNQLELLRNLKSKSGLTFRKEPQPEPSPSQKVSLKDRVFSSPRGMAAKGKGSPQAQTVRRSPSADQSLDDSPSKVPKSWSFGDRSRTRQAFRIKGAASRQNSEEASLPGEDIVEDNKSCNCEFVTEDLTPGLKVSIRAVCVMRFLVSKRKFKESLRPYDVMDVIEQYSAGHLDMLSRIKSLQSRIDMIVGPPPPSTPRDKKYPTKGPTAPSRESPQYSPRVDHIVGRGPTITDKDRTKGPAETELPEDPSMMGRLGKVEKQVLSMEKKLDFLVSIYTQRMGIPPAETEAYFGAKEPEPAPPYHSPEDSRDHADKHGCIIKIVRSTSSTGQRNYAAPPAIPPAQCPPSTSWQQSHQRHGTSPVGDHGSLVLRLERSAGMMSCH

Compound | KCNQ2 Current ([1]; at 20 μM) | melting point | other results
O=C1Nc2cc(C(F)(F)F)ccc2C1(F)c1cc(Cl)ccc1OCC(F)(F)F (racemic) [Example 2, (±)-3-[5-Chloro-2-[(2,2,2-trifluoroethoxy)phenyl]-1,3-dihydro-3-fluoro-6-(trifluoromethyl)-2H-indol-2-one] | – | – | KCNQ2 Current ([1]; at 10 μM): ++** (++ = >150%); decrease from control amplitude of SSS-stimulated trigeminal field response ([2]; 50 mg/kg i.v., anesthetized Long-Evans rats, solution in 100% polyethylene glycol 400): 86.7±1.67%; reduction of trigeminal field response compared with vehicle ([2]; doses 0.1, 1.0, 10.0, 30.0 and 50.0 mg/kg i.v., p<0.01 in all cases): Significant reductions compared with vehicle; reduction in the SSS-stimulated trigeminal field response ([2]; i.v., rats, overall ANOVA p<0.001): dose-dependent reduction
O=C1Nc2cc(F)c(F)cc2C1(F)c1cc(Cl)ccc1OCC(F)(F)F (racemic) [Example 10, (±)-3-[5-Chloro-2-(2,2,2-trifluoroethoxy)phenyl]-1,3-dihydro-3,5,6-trifluoro-2H-indol-2-one] | + (+ = 120-150%) | 200 to 203 °C | –
O=C1Nc2cc(CF)ccc2C1(F)c1cc(Cl)ccc1OCC(F)(F)F (racemic) [Example 7, (±)-3-[5-Chloro-2-(2,2,2-trifluoroethoxy)phenyl]-1,3-dihydro-3-fluoro-6-(fluoromethyl)-2H-indol-2-one] | – | 150 to 151 °C | –
O=C1Nc2cc(Cl)ccc2C1(F)c1cc(Cl)ccc1OCC(F)(F)F (racemic) [Example 11, (±)-6-Chloro-3-[5-chloro-2-(2,2,2-trifluoroethoxy)phenyl]-1,3-dihydro-3-fluoro-2H-indol-2-one] | ++ (++ = >150%) | 167 to 169 °C | –
O=C1Nc2cc(C(F)(F)F)ccc2C1(F)c1cc(Cl)ccc1OCC(F)(F)F (racemic) [Example 1, (±)-3-[5-Chloro-2-[(2,2,2-trifluoroethoxy)phenyl]-1,3-dihydro-3-fluoro-6-(trifluoromethyl)-2H-indol-2-one] | – | – | KCNQ2 Current ([1]; at 10 μM): ++** (++ = >150%)
O=C1Nc2cc(F)ccc2C1(F)c1cc(Cl)ccc1OCC(F)(F)F (racemic) [Example 6, (±)-3-[5-Chloro-2-(2,2,2-trifluoroethoxy)phenyl]-1,3-dihydro-3,6-difluoro-2H-indol-2-one] | – | 200 to 202 °C | –
(±)-3-[5-Chloro-2-(2,2,2-trifluoroethoxy)phenyl]-5,6-dichloro-1,3-dihydro-3-fluoro-2H-indol-2-one [Example 9] | + (+ = 120-150%) | – | –

Further lines, with some results ahead:

KCNQ2 Current ([1]; at 20 μM) | melting point | Compound | other results
+ (+ = 120-150%) | – | O=C1Nc2cc(C(F)(F)F)ccc2C1(F)c1cc(Cl)ccc1OCCF (racemic) [Example 14, (±)-3-[5-Chloro-2-(2-fluoroethoxy)phenyl]-1,3-dihydro-3-fluoro-6-(trifluoromethyl)-2H-indol-2-one] | –
– | 105 to 107 °C | CCSc1ccc(Cl)cc1C1(F)C(=O)Nc2cc(C(F)(F)F)ccc21 (stereo not shown) [Example 17, 3-[5-Chloro-2-(ethylthio)phenyl]-1,3-dihydro-3-fluoro-6-(trifluoromethyl)-2H-indol-2-one] | –
++ (++ = >150%) | – | O=C1Nc2cc(Cl)ccc2C1(F)c1cc(Cl)ccc1OCC(F)(F)F (single isomer, unassigned; (+)) [Example 12, (+)-6-Chloro-3-[5-chloro-2-(2,2,2-trifluoroethox)phenyl]-1,3-dihydro-3-fluoro-2H-indol-2-one] | –
– | 103 to 105 °C | O=C1Nc2cc(-c3ccc(C(F)(F)F)cc3)ccc2C1(F)c1cc(Cl)ccc1OCC(F)(F)F (racemic) [Example 23, (±)-3-[5-Chloro-2-(2,2,2-trifluoroethoxy)phenyl]-1,3-dihydro-3-fluoro-6-[4-(trifluoromethyl)phenyl]-2H-indol-2-one] | –
